Measured values published in patent US11986532B2 (Arvinas Operations, Inc., priority 2021, dated 2024).
Like-named read-outs stand apart in the source and are kept apart here.

Biological target: T1, BCL6 (Homo sapiens, UniProt P41182)
T1 construct: endogenous in cells; host or cells: T47D breast cancer epithelial cells
Experiment: Immunofluorescence protocol for high content imaging of BCL6 (degradation) in T47D cells, 3 days compound treatment
Assay type: cell-based
Conditions: for Dmax: read-out: Mean Dmax (%)** category; for DC50: read-out: Mean DC50 (nM)* category
Outline: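 Cells are seeded to reach ~70-90% confluence at endpoint, then dosed next day with compound at a final top concentration of 0.1 or 1 μM (11 points, 3-fold). After 3 days, BCL6 is detected by immunofluorescence and quantified by high-content imaging.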

[1] = T47D cells, 3 days compound treatment

Row | Compound | DC50 [1] [nM] | Dmax [1] [%] | Dmax (T47D) [%] | DC50 [nM]
1 | CNC(=O)COc1cc2cc(Nc3nc(N4CCC(O[C@H]5C[C@H](N6[C@@H](C)CN(c7ccc8c(c7)CN(C7CCC(=O)NC7=O)C8=O)C[C@@H]6C)C5)CC4)ncc3Cl)ccc2n(C(C)C)c1=O (stereo partly drawn) [Compound 254, 2-({6-[(5-chloro-2-{4-[(1r,3r)-3-[(2S,6S)-4-[2-(2,6-dioxopiperidin-3-yl)-1-oxo-2,3-dihydro-1H-isoindol-5-yl]-2,6-dimethylpiperazin-1-yl]cyclobutoxy]piperidin-1-yl}pyrimidin-4-yl)amino]-2-oxo-1-(propan-2-yl)-1,2-dihydroquinolin-3-yl}oxy)-N-methylacetamide] | – | – | ≥ 70 | < 10
2 | CNC(=O)COc1cc2cc(Nc3nc(N4CCC(O[C@H]5C[C@H](N6CCC(c7ccc8c(c7F)[C@H](C)N(C7CCC(=O)NC7=O)C8=O)CC6)C5)CC4)ncc3Cl)ccc2n(C(C)C)c1=O (stereo partly drawn) [Compound 291, 2-({6-[(5-chloro-2-{4-[(1r,3r)-3-{4-[(3S)-2-(2,6-dioxopiperidin-3-yl)-4-fluoro-3-methyl-1-oxo-2,3-dihydro-1H-isoindol-5-yl]piperidin-1-yl}cyclobutoxy]piperidin-1-yl}pyrimidin-4-yl)amino]-2-oxo-1-(propan-2-yl)-1,2-dihydroquinolin-3-yl}oxy)-N-methylacetamide] | – | – | ≥ 70 | < 10
3 | CNC(=O)COc1cc2cc(Nc3nc(N4CCC(CN5CCC6(CN(c7ccc8c(c7OC)CN(C7CCC(=O)NC7=O)C8=O)C6)C(F)(F)C5)CC4)ncc3Cl)ccc2n(C(C)C)c1=O (stereo not drawn) [Compound 352, 2-{[6-({5-chloro-2-[4-({2-[2-(2,6-dioxopiperidin-3-yl)-4-methoxy-1-oxo-2,3-dihydro-1H-isoindol-5-yl]-5,5-difluoro-2,7-diazaspiro [3.5]nonan-7-yl}methyl)piperidin-1-yl]pyrimidin-4-yl}amino)-2-oxo-1-(propan-2-yl)-1,2-dihydroquinolin-3-yl]oxy}-N-methylacetamide] | – | – | < 50 | 10 to 50
4 | CNC(=O)COc1cc2cc(Nc3nc(N4CCC(O[C@H]5C[C@H](N6CCN(c7ccc8c(c7Cl)CN(C7CCC(=O)NC7=O)C8=O)[C@H](C)C6)C5)CC4)ncc3Cl)ccc2n(C(C)C)c1=O (stereo partly drawn) [Compound 202, 2-({6-[(5-chloro-2-{4-[(1r,3r)-3-[(3R)-4-[4-chloro-2-(2,6-dioxopiperidin-3-yl)-1-oxo-2,3-dihydro-1H-isoindol-5-yl]-3-methylpiperazin-1-yl]cyclobutoxy]piperidin-1-yl}pyrimidin-4-yl)amino]-2-oxo-1-(propan-2-yl)-1,2-dihydroquinolin-3-yl}oxy)-N-methylacetamide] | < 10 | ≥ 70 | – | –
5 | CC(C)n1c(=O)c(OCC(=O)N(C)O)cc2cc(Nc3nc(N4CCC(O[C@H]5C[C@H](N6CCC(c7ccc8c(c7F)CN(C7CCC(=O)NC7=O)C8=O)CC6)C5)CC4)ncc3Cl)ccc21 (stereo partly drawn) [Compound 265, 2-({6-[(5-chloro-2-{4-[(1r,3r)-3-{4-[2-(2,6-dioxopiperidin-3-yl)-4-fluoro-1-oxo-2,3-dihydro-1H-isoindol-5-yl]piperidin-1-yl}cyclobutoxy]piperidin-1-yl}pyrimidin-4-yl)amino]-2-oxo-1-(propan-2-yl)-1,2-dihydroquinolin-3-yl}oxy)-N-hydroxy-N-methylacetamide] | – | – | ≥ 70 | < 10
6 | CNC(=O)COc1cc2cc(Nc3nc(N4CCN(CC5CCN(c6cc(F)c7c(c6)CN(C6CCC(=O)NC6=O)C7=O)CC5)CC4)ncc3Cl)ccc2n(C(C)C)c1=O (stereo not drawn) [Compound 18, 2-{[6-({5-chloro-2-[4-({1-[2-(2,6-dioxopiperidin-3-yl)-7-fluoro-1-oxo-2,3-dihydro-1H-isoindol-5-yl]piperidin-4-yl}methyl)piperazin-1-yl]pyrimidin-4-yl}amino)-2-oxo-1-(propan-2-yl)-1,2-dihydroquinolin-3-yl]oxy}-N-methylacetamide] | < 10 | 50 to 70 | – | –
7 | CNC(=O)COc1cc2cc(Nc3nc(N4CCC(O[C@H]5C[C@H](N6CCN(c7ccc8c(c7F)CN([C@@H]7CCC(=O)NC7=O)C8=O)CC6)C5)CC4)ncc3Cl)ccc2n(C(C)C)c1=O [Compound 392, 2-({6-[(5-chloro-2-{4-[(1r,3r)-3-(4-{2-[(3R)-2,6-dioxopiperidin-3-yl]-4-fluoro-1-oxo-2,3-dihydro-1H-isoindol-5-yl}piperazin-1-yl)cyclobutoxy]piperidin-1-yl}pyrimidin-4-yl)amino]-2-oxo-1-(propan-2-yl)-1,2-dihydroquinolin-3-yl}oxy)-N-methylacetamide] | – | – | ≥ 70 | < 10
8 | CNC(=O)COc1cc2cc(Nc3nc(N4CCC(CN5CCC6(CC5)CC5(CN(c7ccc8c(c7)C(=O)N(C7CCC(=O)NC7=O)C8=O)C5)C6)CC4)ncc3Cl)ccc2n(C(C)C)c1=O (stereo not drawn) [Compound 373, 2-{[6-({5-chloro-2-[4-({2-[2-(2,6-dioxopiperidin-3-yl)-1,3-dioxo-2,3-dihydro-1H-isoindol-5-yl]-2,9-diazadispiro[3.1.5^6.1^4]dodecan-9-yl}methyl)piperidin-1-yl]pyrimidin-4-yl}amino)-2-oxo-1-(propan-2-yl)-1,2-dihydroquinolin-3-yl]oxy}-N-methylacetamide] | – | – | ≥ 70 | < 10
9 | CNC(=O)COc1cc2cc(Nc3nc(N4CCC(O[C@H]5C[C@H](N6CCC7(CC6)CN(c6ccc8c(c6)CN(C6CCC(=O)NC6=O)C8=O)C7)C5)CC4)ncc3Cl)ccc2n(C(C)C)c1=O (stereo partly drawn) [Compound 366, 2-({6-[(5-chloro-2-{4-[(1r,3r)-3-{2-[2-(2,6-dioxopiperidin-3-yl)-1-oxo-2,3-dihydro-1H-isoindol-5-yl]-2,7-diazaspiro [3.5]nonan-7-yl}cyclobutoxy]piperidin-1-yl}pyrimidin-4-yl)amino]-2-oxo-1-(propan-2-yl)-1,2-dihydroquinolin-3-yl}oxy)-N-methylacetamide] | – | – | ≥ 70 | < 10
10 | CNC(=O)COc1cc2cc(Nc3nc(N4CCN(C(C)(C)C5CCN(c6ccc7c(c6)CN(C6CCC(=O)NC6=O)C7=O)CC5)CC4)ncc3Cl)ccc2n(C(C)C)c1=O (stereo not drawn) [Compound 13, 2-{[6-({5-chloro-2-[4-(2-{1-[2-(2,6-dioxopiperidin-3-yl)-1-oxo-2,3-dihydro-1H-isoindol-5-yl]piperidin-4-yl}propan-2-yl)piperazin-1-yl]pyrimidin-4-yl}amino)-2-oxo-1-(propan-2-yl)-1,2-dihydroquinolin-3-yl]oxy}-N-methylacetamide] | < 10 | ≥ 70 | – | –

Second part, led by results:

Row | DC50 [1] [nM] | Dmax [1] [%] | Compound | Dmax (T47D) [%] | DC50 [nM]
11 | < 10 | ≥ 70 | CNC(=O)COc1cc2cc(Nc3nc(N4CCC(F)(CN5CCC6(CC5)CCN(c5cccc7c5C(=O)N(C5CCC(=O)NC5=O)C7=O)CC6)CC4)ncc3Cl)ccc2n(C(C)C)c1=O (stereo not drawn) [Compound 62, 2-{[6-({5-chloro-2-[4-({9-[2-(2,6-dioxopiperidin-3-yl)-1,3-dioxo-2,3-dihydro-1H-isoindol-4-yl]-3,9-diazaspiro[5.5]undecan-3-yl}methyl)-4-fluoropiperidin-1-yl]pyrimidin-4-yl}amino)-2-oxo-1-(propan-2-yl)-1,2-dihydroquinolin-3-yl]oxy}-N-methylacetamide] | – | –
12 | ≥ 100 | ≥ 70 | CNC(=O)COc1cc2cc(Nc3nc(N4CCOC5(CN(CCC6CCN(c7cccc8c7C(=O)N(C7CCC(=O)NC7=O)C8=O)CC6)C5)C4)ncc3Cl)ccc2n(C(C)C)c1=O (stereo not drawn) [Compound 144, 2-{[6-({5-chloro-2-[2-(2-{1-[2-(2,6-dioxopiperidin-3-yl)-1,3-dioxo-2,3-dihydro-1H-isoindol-4-yl]piperidin-4-yl}ethyl)-5-oxa-2,8-diazaspiro[3.5]nonan-8-yl]pyrimidin-4-yl}amino)-2-oxo-1-(propan-2-yl)-1,2-dihydroquinolin-3-yl]oxy}-N-methylacetamide] | – | –
13 | < 10 | < 50 | CNC(=O)COc1cc2cc(Nc3nc(N4CCC(OC5CCC6(CCN(c7ccc8c(c7)CN(C7CCC(=O)NC7=O)C8=O)C6)C5)CC4)ncc3Cl)ccc2n(C(C)C)c1=O (stereo not drawn) [Compound 98, 2-{[6-({5-chloro-2-[4-({2-[2-(2,6-dioxopiperidin-3-yl)-1-oxo-2,3-dihydro-1H-isoindol-5-yl]-2-azaspiro[4.4]nonan-7-yl}oxy)piperidin-1-yl]pyrimidin-4-yl}amino)-2-oxo-1-(propan-2-yl)-1,2-dihydroquinolin-3-yl]oxy}-N-methylacetamide] | – | –
14 | < 10 | ≥ 70 | CNC(=O)COc1cc2c(F)c(Nc3nc(N4CCC(CN5CCC6(CC5)CN(c5ccc7c(c5)CN(C5CCC(=O)NC5=O)C7=O)C6)CC4)ncc3Cl)ccc2n(C(C)C)c1=O (stereo not drawn) [Compound 161, 2-{[6-({5-chloro-2-[4-({2-[2-(2,6-dioxopiperidin-3-yl)-1-oxo-2,3-dihydro-1H-isoindol-5-yl]-2,7-diazaspiro[3.5]nonan-7-yl}methyl)piperidin-1-yl]pyrimidin-4-yl}amino)-5-fluoro-2-oxo-1-(propan-2-yl)-1,2-dihydroquinolin-3-yl]oxy}-N-methylacetamide] | – | –
15 | ≥ 100 | ≥ 70 | CNC(=O)COc1cc2cc(Nc3nc(N4CCC(O[C@H]5CC[C@@H](N6CCC(c7ccc8c(c7)C(=O)N(C7CCC(=O)NC7=O)C8=O)CC6)CC5)CC4)ncc3Cl)ccc2n(C(C)C)c1=O (stereo partly drawn) [Compound 110, 2-[(6-{[5-chloro-2-(4-{[(1s,4s)-4-{4-[2-(2,6-dioxopiperidin-3-yl)-1,3-dioxo-2,3-dihydro-1H-isoindol-5-yl]piperidin-1-yl}cyclohexyl]oxy}piperidin-1-yl)pyrimidin-4-yl]amino}-2-oxo-1-(propan-2-yl)-1,2-dihydroquinolin-3-yl)oxy]-N-methylacetamide] | – | –
